Data from patent publication US20260015341A1, “PI3K INHIBITOR, PREPARATION METHOD THEREFOR, AND USE THEREOF” (HINOVA PHARMACEUTICALS INC., priority 2022, published 2026).

Columns and labels:
[1] = biological target: PI3Kα[WT]/[E542K]/[E545K]/[H1047R]/PI3Kβ/γ/δ; assay: PI3K enzyme activity assay (ADP-Glo); format: biochemical; details: PI3K kinase reaction, isoform not given
Method: Experimental Example 1: PI3Kα[WT]/[E542K]/[E545K]/[H1047R]/PI3Kβ/γ/δ Enzyme Activity Assay
PI3Kα[WT], PI3Kα[E542K], PI3Kα[E545K], PI3Kα[H1047R], PI3Kβ, PI3Kγ and PI3Kδ kinase reaction was performed in 384-well plate (PerkinElmer, #6008280), with a reaction system of 4 μL. PI3Kα[WT] enzyme solution (Promega, #V1721) or PI3Kα[E542K] enzyme solution (CarnaBio, #11-413-20N) or PI3Kα[E545K] enzyme solution (CarnaBio, #11-414-20N) or PI3Kα[H1047R] enzyme solution (Promega, #V1741) or PI3Kβ enzyme solution (Promega, #V1751) or PI3Kγ enzyme solution (ThermoFisher, #PV4786) or PI3Kδ enzyme solution (ThermoFisher, #PV6451) were added to 384-well plate, and then gradiently diluted compounds were added (starting at a final concentration of 10 μM, 3-fold dilution, 10 doses), followed by adding PIP2: 3PS (Promega, #V1701) and ATP solution (Promega, #V915B) to the plate. After incubation at 25° C. for 1 h, ADP-Glo reagent buffer (Promega, #V9102) was added to each well. The plate was sealed and incubated at 25° C. for 40 min, and then 10 μL of ADP-Glo detection buffer (Promega, #V9102) was added to each well. After incubating at 25° C. for 40 min, the chemiluminescence value was read using an instrument.
The experimental results are shown in the ADP Glo IC50 column in Table 2.

[2] = tested on: MCF-10A cells; assay: Inhibitory effects on the proliferation of MCF-10A cells (CCK8); format: cell-based; details: 6 days
Method: Experimental Example 2: Experiment of Inhibitory Effects on the Proliferation of MCF-10A Cells
MCF-10A cells (Cobioer Bio. #CBP60419MCF) were diluted with complete medium (Cobioer Bio. #CBP60419), seeded in 96-well plate (Corning #3599) at 500 cells/well, and then cultured for 24 h. Then, gradiently diluted compounds were added (starting at a final concentration of 10 μM, 3-fold dilution, 9 dose concentrations), and the final volume was adjusted to 100 μL/well. The plate was incubated at 37° C. under 5% CO2 for 6 days. After the cultivation was completed, CCK8 reagent (Signalway Antibody Bio. #CP002) was added at 10 μL/well, and then the plate was further incubated at 37° C. under 5% CO2 for 2-3 hours. The OD450 nm value was obtained by a microplate reader.
The results are shown in the MCF-OA IC50 column in Table 2.

[3] = tested on: T47D cells; assay: Inhibitory effects on the proliferation of T47D cells (CellTiter-Glo); format: cell-based; details: 7 days
Method: Experimental Example 3: Experiment of Inhibitory Effects on the Proliferation of T47D Cells
T47D cells (ATCC. #HTB-133) were diluted with RPMI 1640 (Gibco #22400-089) containing 10% FBS (Hyclone #SH30084.03), seeded in 96-well plate (Biosharp #BS-MP-96W) at 1000 cells/well, and then cultured for 24 h. Then, gradiently diluted compounds were added (starting at a final concentration of 10 μM, 3-fold dilution, 9 dose concentrations), and the final volume was adjusted to 150 μL/well. The plate was incubated at 37° C. under […] for 7 days. After the cultivation was completed, CellTiter-Glo reagent (Promega #G7573) was added at 75 μL/well, and then the plate was further incubated at 25° C. for 10 min. After that, the chemiluminescence value was read using an instrument.
The results are shown in the T47D IC50 column in Table 2.

Row | SMILES | IC50 [1] [nM] | IC50 ([2]; Homo sapiens, 144 h) [nM] | IC50 ([3]; Homo sapiens, 168 h) [nM] | IC50 [2] [nM] | IC50 [3] [nM]
1 | Cc1cc([C@@H](C)Nc2ccccc2C(=O)O)c2nc(-c3ccc(F)cc3F)cc(=O)n2c1 [Compound 41, (R)-2-((1-(2-(2,4-difluorophenyl)-7-methyl-4-oxo-4H-pyrido[1,2-a]pyrimidin-9-yl)ethyl)amino)benzoic Acid] | < 1000 | > 5000 | 1000 to 5000 |  | 
2 | Cc1cc([C@@H](C)Nc2ccccc2C(=O)O)c2nc(-c3cc(F)ccc3F)n(C)c(=O)c2c1 [Compound 59] | < 1000 | > 5000 | < 1000 |  | 
3 | C[C@@H](Nc1ccc(Cl)nc1C(=O)O)c1cc(F)cc2c(=O)n(C)c(-c3ncc(Cl)cn3)nc12 [Compound 99] | < 1000 | > 5000 | < 1000 |  | 
4 | Cc1cc([C@@H](C)Nc2ccccc2C(=O)O)c2oc(-c3ccc4c(c3)OC(F)(F)O4)cc(=O)c2c1 [Compound 43] | < 1000 | > 5000 | < 1000 |  | 
5 | C[C@@H](Nc1ccc(F)cc1C(=O)O)c1cc(F)cc2c(=O)n(C)c(-c3ccc(F)cn3)nc12 [Compound 77] | < 1000 | > 5000 | < 1000 |  | 
6 | Cc1cc([C@@H](C)Nc2ccc(Cl)nc2C(=O)O)c2nc(-c3c(C)nn(C)c3C)n(C)c(=O)c2c1 [Compound 53] | < 1000 | 1000 to 5000 | < 1000 |  | 
7 | Cc1cc([C@@H](C)Nc2cccc(F)c2C(=O)O)c2nc(-c3ccc(C(F)(F)F)cn3)n(C)c(=O)c2c1 [Compound 71] | 1000 to 5000 | > 5000 | > 5000 |  | 
8 | Cc1cc([C@@H](C)Nc2ccccc2C(=O)O)c2nc(N3CCC(C)(C)CC3)[nH]c(=O)c2c1 [Compound 4, (R)-2-((1-(2-(4,4-dimethylpiperidin-1-yl)-6-dimethyl-4-oxo-3,4-dihydroquinazolin-8-yl)ethyl)amino)benzoic Acid] | 1000 to 5000 |  |  |  | 
9 | Cc1cc([C@@H](C)Nc2ccccc2C(=O)O)c2nc(-c3ccc(F)cc3F)n(C)c(=O)c2c1 [Compound 45] | < 1000 | > 5000 | < 1000 |  | 
10 | Cc1cc([C@@H](C)Nc2ccccc2C(=O)O)c2nc(-c3ccc(F)cc3)n(C)c(=O)c2c1 [Compound 61] | < 1000 | > 5000 | < 1000 |  | 
11 | Cc1cc([C@@H](C)Nc2cccc(F)c2C(=O)O)c2nc(-c3ccc(F)cc3)n(C)c(=O)c2c1 [Compound 72] | < 1000 | > 5000 | 1000 to 5000 |  | 
12 | Cc1cc([C@@H](C)Nc2ccc[nH]c2=O)c2oc(-c3ccc(F)cc3F)cc(=O)c2c1 [Compound 62] | < 1000 | > 5000 | 1000 to 5000 |  | 
13 | Cc1cc([C@@H](C)Nc2ccccc2C(=O)O)c2nc(N3CCC(C)(C)CC3)n(C)c(=O)c2c1 [Compound 6, (R)-2-((1-(2-(4,4-dimethylpiperidin-1-yl)-3,6-dimethyl-4-oxo-3,4-dihydroquinazolin-8-yl)ethyl)amino)benzoic Acid] | < 1000 |  | < 1000 |  | 
14 | C[C@@H](Nc1ccc(Cl)nc1C(=O)O)c1cc(F)cc2c(=O)n(C)c(-c3ncccn3)nc12 [Compound 100] | < 1000 | > 5000 | < 1000 |  | 
15 | Cc1cc([C@@H](C)Nc2ccsc2C(=O)O)c2nc(-c3ccc(F)cn3)n(C)c(=O)c2c1 [Compound 82] | < 1000 | > 5000 | > 5000 |  | 
16 | Cc1cc([C@@H](C)Nc2ccc(Cl)nc2C(=O)O)c2nc(-c3ccc(F)cc3F)n(C)c(=O)c2c1 [Compound 44] | < 1000 | > 5000 | < 1000 |  | 
17 | Cc1cc([C@@H](C)N[S@+]([O-])C(C)(C)C)c2nc(N3CCC(C)(C)CC3)n(C)c(=O)c2c1 [Compound 5] | 1000 to 5000 |  |  |  | 

Row | SMILES | IC50 [1] [nM] | IC50 ([2]; Homo sapiens, 144 h) [nM] | IC50 ([3]; Homo sapiens, 168 h) [nM] | IC50 [2] [nM] | IC50 [3] [nM]
18 | Cc1cc([C@@H](C)Nc2ccc(Cl)nc2C(=O)O)c2nc(-c3cc(F)ccc3F)n(C)c(=O)c2c1 [Compound 60] | < 1000 | > 5000 | < 1000 |  | 
19 | Cc1cc([C@@H](C)Nc2ccc(Cl)nc2C(=O)O)c2nc(-c3ncc(Cl)cn3)n(C)c(=O)c2c1 [Compound 96] | < 1000 |  |  |  | 
20 | Cc1cc([C@@H](C)Nc2cccc(F)c2C(=O)O)c2nc(-c3ccc(F)cn3)n(C)c(=O)c2c1 [Compound 70] | < 1000 | > 5000 | 1000 to 5000 |  | 
21 | Cc1cc([C@@H](C)Nc2ccc(Cl)nc2C(=O)O)c2oc(-c3ccc4c(c3)OC(F)(F)O4)cc(=O)c2c1 [Compound 46] | < 1000 | > 5000 | < 1000 |  | 
22 | Cc1cc([C@@H](C)Nc2ccccc2S(N)(=O)=O)c2oc(-c3ccc(F)cc3F)cc(=O)c2c1 [Compound 27, (R)-2-((1-(2-(2,4-difluorophenyl)-6-methyl-4-oxo-4H-chromen-8-yl)ethyl)amino)benzenesulfonamide] | > 5000 | > 5000 | > 5000 |  | 
23 | C[C@@H](Nc1cccc(F)c1C(=O)O)c1cc(F)cc2c(=O)n(C)c(-c3ccc(F)cn3)nc12 [Compound 73] | < 1000 | > 5000 | 1000 to 5000 |  | 
24 | Cc1cc([C@@H](C)Nc2ccccc2C(=O)O)c2oc(C3CCC(F)(F)CC3)cc(=O)c2c1 [Compound 58, (R)-2-((1-(2-(4,4-difluorocyclohexyl)-6-methyl-4-oxo-4H-chromen-8-yl)ethyl)amino)benzoic Acid] | < 1000 | > 5000 | < 1000 |  | 
25 | Cc1cc([C@@H](C)Nc2cccc3c2C(=O)NC3=O)c2oc(-c3ccc(F)cc3F)cc(=O)c2c1 [Compound 55] | 1000 to 5000 | > 5000 | > 5000 |  | 
26 | Cc1cc([C@@H](C)Nc2ccccc2C(=O)O)c2[nH]c(-c3ccc(F)cn3)[n+](C)c(=O)c2c1 [Compound 69] | < 1000 |  |  | > 5000 | < 1000
27 | Cc1cc([C@@H](C)Nc2ccnn2C)c2oc(-c3ccc(F)cc3F)cc(=O)c2c1 [Compound 42] | 1000 to 5000 |  |  |  | 
28 | Cc1cc([C@@H](C)NC2CCC(=O)NC2=O)c2oc(-c3ccc(F)cc3F)cc(=O)c2c1 (stereo partly drawn) [Compound 117] | > 5000 | > 5000 | > 5000 |  | 
29 | Cc1cc([C@@H](C)Nc2ccccc2NS(C)(=O)=O)c2oc(-c3ccc(F)cc3F)cc(=O)c2c1 [Compound 28] | 1000 to 5000 | > 5000 | < 1000 |  | 
30 | COC(=O)c1nc(Cl)ccc1N[C@H](C)c1cc(C)cc2c(=O)n(C)c(-c3ccncc3)nc12 [Compound 103] | < 1000 | > 5000 | < 1000 |  | 
31 | Cc1cc([C@@H](C)Nc2ccccc2C(O)C(F)(F)F)c2oc(-c3ccc(F)cc3F)cc(=O)c2c1 (stereo partly drawn) [Compound 57, 2-(2,4-difluorophenyl)-6-methyl-8-((1R)-1-((2-(2,2,2-trifluoro-1-hydroxyethyl)phenyl)amino)ethyl)-4H-chromen-4-one] | < 1000 | > 5000 | > 5000 |  | 
32 | C[C@@H](Nc1ccc(Cl)cc1C(=O)O)c1cc(F)cc2c(=O)n(C)c(-c3ccc(F)cn3)nc12 [Compound 80] | < 1000 | > 5000 | < 1000 |  | 
33 | [2H]C([2H])([2H])NC(=O)c1ncccc1N[C@H](C)c1cc(C)cc2c(=O)cc(-c3ccc(F)cc3F)oc12 [Compound 48, (R)-3-((1-(2-(2,4-difluorophenyl)-6-methyl-4-oxo-4H-chromen-8-yl)ethyl)amino)-N-(methyl-d3)picolinamide] | 1000 to 5000 | > 5000 | 1000 to 5000 |  | 
